Laboratory results from article PMC5681660, “Reduced hepatitis B and D viral entry using clinically applied drugs as novel inhibitors of the bile acid transporter NTCP” (Scientific Reports, 2017).
Structures can show the parent of a compound that is named as a salt. Where two headings read alike, the source gives them in different places.

How the values were obtained:
human NTCP [1] = target: T1, human NTCP (Homo sapiens, UniProt Q14973); assay: Screening fluorescent competitive Myrcludex B-FITC binding assay (96-well, 10 µM drug)
T1 sequence (Q14973 1-349): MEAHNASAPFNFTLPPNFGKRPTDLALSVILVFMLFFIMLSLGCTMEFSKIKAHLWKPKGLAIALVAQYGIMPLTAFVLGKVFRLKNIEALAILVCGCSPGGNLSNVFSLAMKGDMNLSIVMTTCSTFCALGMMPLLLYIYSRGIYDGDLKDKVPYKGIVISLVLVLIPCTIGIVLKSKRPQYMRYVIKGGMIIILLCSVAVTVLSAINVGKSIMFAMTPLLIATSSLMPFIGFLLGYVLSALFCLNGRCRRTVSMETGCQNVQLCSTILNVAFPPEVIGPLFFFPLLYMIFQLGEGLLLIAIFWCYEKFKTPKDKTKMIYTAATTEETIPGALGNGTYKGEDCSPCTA

human NTCP [2] = target: T1, human NTCP; assay: Screening taurocholate uptake assay (96-well, [14C]taurocholate, 10 µM drug)
[3] = screen, 10 µM drug, Myrcludex B-FITC binding
[4] = combined ranking from functional and binding screening assays
[5] = screen, 10 µM drug, taurocholate uptake
[6] = Prestwick library screen, Myrcludex B-FITC binding, 10 µM drug
[7] = Prestwick library screen, taurocholate uptake, 10 µM drug
[8] = ranking score beside the functional and binding assay B-scores of the screen
[9] = Prestwick library screen, 10 µM drug, B-score of Myrcludex B-FITC binding
[10] = Prestwick library screen, 10 µM drug, B-score of taurocholate uptake
[11] = combined ranking from functional and binding assay B-scores

Compound | B-score binding assay (human NTCP [1]; [6]) | B-score functional assay (human NTCP [2]; [7]) | Ranking score (human NTCP [2]; [8]) | B-score binding assay (human NTCP [1]; [9]) | B-score functional assay (human NTCP [2]; [10]) | Ranking score (human NTCP [2]; [11]) | other results
O=C1Cc2cc(CCN3CCN(c4nsc5ccccc45)CC3)c(Cl)cc2N1 [Ziprasidone Hydrochloride] |  |  |  |  |  |  | B-score binding assay (human NTCP [1]; [3]): -0.675; Ranking score (human NTCP [2]; [4]): 382.094; B-score functional assay (human NTCP [2]; [5]): -0.279
C[C@@]12N[C@@H](Cc3ccccc31)c1ccccc12.O=C(O)/C=C\C(=O)O [(-)-MK 801 hydrogen maleate] | 0.115 | -0.004 | 690.814 |  |  |  | 
CN(CCCCCCCCCCN(C)C(=O)Oc1cccc([N+](C)(C)C)c1)C(=O)Oc1cccc([N+](C)(C)C)c1 [Demecarium bromide] |  |  |  | 0.623 | 0.13 | 853.475 | 
CCOC(=O)/C=C(C)/C=C/C=C(C)/C=C/c1c(C)cc(OC)c(C)c1C [Etretinate] | -0.079 | 0.504 | 712.48 |  |  |  | 
CCCNC(C)C(=O)Nc1ccccc1C (stereo not drawn) [Prilocaine hydrochloride] |  |  |  |  |  |  | B-score binding assay (human NTCP [1]; [3]): -1.737; Ranking score (human NTCP [2]; [4]): 304.329; B-score functional assay (human NTCP [2]; [5]): 0.027
O=P1(N(CCCl)CCCl)NCCCO1 (stereo not drawn) [Cyclophosphamide] |  |  |  |  |  |  | B-score binding assay (human NTCP [1]): 1.227; B-score functional assay (human NTCP [2]): 0.493; Ranking score (human NTCP [2]): 990.921
Nc1ccc(S(=O)(=O)Nc2nccs2)cc1 [Sulfathiazole] |  |  |  |  |  |  | B-score binding assay (human NTCP [1]; [3]): 0.039; Ranking score (human NTCP [2]; [4]): 386.996; B-score functional assay (human NTCP [2]; [5]): -1.223
Nc1ccc(S(=O)(=O)Nc2ccccn2)cc1 [Sulfapyridine] |  |  |  |  |  |  | B-score binding assay (human NTCP [1]; [3]): -1.889; Ranking score (human NTCP [2]; [4]): 331.804; B-score functional assay (human NTCP [2]; [5]): 0.557
CN1C(=O)CCS(=O)(=O)C1c1ccc(Cl)cc1 (stereo not drawn) [Chlormezanone] |  |  |  | 1.516 | 0.286 | 979.274 | 
COc1ccc(C2CNC(=O)C2)cc1OC1CCCC1 (stereo not drawn) [Rolipram] |  |  |  | 0.265 | 0.524 | 872.569 | 
Cc1cc(NC(=O)C2=C(O)c3ccccc3S(=O)(=O)N2C)no1 [Isoxicam] |  |  |  | 0.145 | 1.391 | 933.01 | 
Br.COc1ccc2c(c1)[C@]13CCCC[C@@H]1[C@H](C2)N(C)CC3.O |  |  |  | 2.674 | 0.044 | 928.917 | 
O=C(Cn1ccnc1[N+](=O)[O-])NCCO [Etanidazole] | 0.108 | -0.015 | 680.728 |  |  |  | 
Nc1ncn([C@@H]2O[C@H](CO)[C@@H](O)[C@H]2O)c(=O)n1 [Azacytidine-5] |  |  |  | 1.257 | 0.011 | 847.665 | 
COc1ccc2[nH]cc(CCNC(C)=O)c2c1 [Melatonin] |  |  |  | 0.248 | 0.509 | 864.497 | 
Cc1nccn1CC1CCc2c(c3ccccc3n2C)C1=O.Cl (stereo not drawn) [Ondansetron Hydrochloride] | 0 | 0.043 | 666.933 |  |  |  | 
CCCSc1ccc2nc(NC(=O)OC)[nH]c2c1 [Albendazole] |  |  |  |  |  |  | B-score binding assay (human NTCP [1]): 0.993; B-score functional assay (human NTCP [2]): -0.13; Ranking score (human NTCP [2]): 731.855
CC1CC(OC(=O)C(O)c2ccccc2)CC(C)(C)N1C (stereo not drawn) [Eucatropine hydrochloride] |  |  |  | 1.847 | 0.117 | 950.91 | 
O=c1oc2ccccc2c(O)c1Cc1c(O)c2ccccc2oc1=O [Dicumarol] |  |  |  |  |  |  | B-score binding assay (human NTCP [1]; [3]): 1.31; Ranking score (human NTCP [2]; [4]): 403.485; B-score functional assay (human NTCP [2]; [5]): -1.792

Compound | B-score binding assay (human NTCP [1]; [6]) | B-score functional assay (human NTCP [2]; [7]) | Ranking score (human NTCP [2]; [8]) | B-score binding assay (human NTCP [1]; [9]) | B-score functional assay (human NTCP [2]; [10]) | Ranking score (human NTCP [2]; [11]) | other results
CC(=O)O[C@H]1CC[C@@]2(C)C(=CC[C@@H]3[C@@H]2CC[C@]2(C)C(=O)CC[C@@H]32)C1 [Dehydroisoandosterone 3-acetate] |  |  |  |  |  |  | B-score binding assay (human NTCP [1]; [3]): -0.747; Ranking score (human NTCP [2]; [4]): 438.862; B-score functional assay (human NTCP [2]; [5]): 0.002
CC[C@H]1OC(=O)[C@H](C)[C@@H](O[C@H]2C[C@@](C)(OC)[C@@H](O)[C@H](C)O2)[C@H](C)[C@@H](O[C@@H]2O[C@H](C)C[C@H](N(C)C)[C@H]2O)[C@](C)(O)C[C@@H](C)C(=O)[C@H](C)[C@@H](O)[C@]1(C)O [Erythromycin] |  |  |  | 0.93 | 3.026 | 1129.71 | 
CC(N)C12CC3CC(CC(C3)C1)C2 (stereo not drawn) [Rimantadine Hydrochloride] | 0.171 | 0.074 | 753.923 |  |  |  | 
CC(=O)Nc1c(I)c(C(=O)N[C@H]2C(O)O[C@H](CO)[C@@H](O)[C@@H]2O)c(I)c(N(C)C(C)=O)c1I (stereo partly drawn) [Metrizamide] | 0.138 | 0.395 | 816.081 |  |  |  | 
COc1cc(NC(C)CCCN)c2ncccc2c1 (stereo not drawn) [Primaquine diphosphate] |  |  |  | 0.361 | 4.393 | 1046.51 | 
CC(C(=O)O)c1ccc2c(c1)[nH]c1ccc(Cl)cc12 (stereo not drawn) [Carprofen] |  |  |  |  |  |  | B-score binding assay (human NTCP [1]; [3]): 0.048; Ranking score (human NTCP [2]; [4]): 288.205; B-score functional assay (human NTCP [2]; [5]): -2.152
CN(Cc1cnc2nc(N)nc(N)c2n1)c1ccc(C(=O)N[C@@H](CCC(=O)O)C(=O)O)cc1 [Methotrexate] | -0.007 | 0.045 | 661.494 |  |  |  | 
Cc1cccc(C)c1NC(=O)C(C)N (stereo not drawn) [Tocainide hydrochloride] |  |  |  | 0.83 | 1.054 | 1036.23 | 
Cc1noc(NS(=O)(=O)c2ccc(N)cc2)c1C [Sulfisoxazole] | 0.207 | -0.089 | 663.513 |  |  |  | 
CNCCC=C1c2ccccc2CCc2ccccc21 [Nortriptyline hydrochloride] |  |  |  | 1.407 | 1.081 | 1101.36 | 
COc1ccc(C(Cl)=C(c2ccc(OC)cc2)c2ccc(OC)cc2)cc1 [Chlorotrianisene] |  |  |  | 1.19 | 0.481 | 983.616 | 
CN(C)CCC(c1ccc(Cl)cc1)c1ccccn1 (stereo not drawn) [Chlorpheniramine maleate] |  |  |  | 1.318 | 1.245 | 1106.99 | 
O=C(CCNNC(=O)c1ccncc1)NCc1ccccc1 [Nialamide] |  |  |  | 0.697 | 0.331 | 907.486 | 
CNC(=O)c1c(I)c(C(=O)NCC(=O)Nc2c(I)c(C(=O)O)c(I)c(C(=O)NCCO)c2I)c(I)c(N(C)C(C)=O)c1I [Ioxaglic acid] | 2.105 | -0.19 | 769.829 |  |  |  | 
O=C1NCC2(CCN(CCc3ccccc3)CC2)O1 [Fenspiride hydrochloride] | 0.26 | 0.107 | 788.391 |  |  |  | 
COc1cc(C)c(/C=C/C(C)=C/C=C/C(C)=C/C(=O)O)c(C)c1C [Acitretin] |  |  |  |  |  |  | B-score binding assay (human NTCP [1]; [3]): -1.766; Ranking score (human NTCP [2]; [4]): 302.82; B-score functional assay (human NTCP [2]; [5]): 0.046
Nc1ccn([C@@H]2O[C@H](CO)[C@@H](O)C2(F)F)c(=O)n1 [Gemcitabine] | 0.165 | 0.015 | 717.496 |  |  |  | 
CN1CCCN(C(c2ccccc2)c2ccc(Cl)cc2)CC1.Cl.Cl (stereo not drawn) [Homochlorcyclizine dihydrochloride] |  |  |  | 1.404 | 0.737 | 1053.65 | 
CC(=O)Nc1ccc(CC(=O)O)cc1 [Actarit] | 1.648 | -0.304 | 719.277 |  |  |  | 
